The text below walks through data of patent US20090162372A1, “FIBRONECTIN ED-B ANTIBODIES, CONJUGATES THEREOF, AND METHODS OF USE” (Medarex, Inc., priority 2007, published 2009).

For data set [1] the following is noted: experimental animals; cited from earlier work.
Data set [2] concerns LNCaP/prostate stroma coculture tumors. Kind of data set: Efficacy against LNCaP/prostate stroma coculture tumors in SCID mice (tumor volume). Type of data set: in vivo, CB17.SCID mice. The following applies: naked antibody 30 mg/kg IP SD on Day 0; to Day 62; FIG. 4. The method, then: In order to determine the efficacy of anti-RG-1 and ED-B-cytotoxin conjugates (using the cytotoxin/linker of formula (m)), LNCaP xenografts were performed as follows: 120 CB17.SCID mice were each subcutaneously injected with 2 million LNCaP cells and 1 million prostate stroma cells (cat# CC-2508, Cambrex Bio Science Walkersville, Inc, Walkersville, Md.) resuspended in 0.2 ml of PBS/Matrigel (1:1) (BD Bioscience) at the flank region. This LNCaP/Stroma model expresses high levels of PMSA on the cell surface, high levels of RG-1 in the stroma, and low levels of ED-B in the stroma. CD70 is used as an isotype control as the xenographs are negative for CD70. Mice were weighed and measured for tumors three dimensionally using an electronic caliper once weekly after implantation. Tumor volumes were calculated as height×width×length/2. Mice with tumors averaging 50 mm^3 were randomized into 16 treatment groups of seven mice on Day-1 and mice were treated intraperitoneally with vehicle, antibody, or antibody-cytotoxin conjugate according to the dosing regimen described in Table 1 on Day 0, Studies were terminated at Day 62.

Take `COc1c(O)c2c(c3cc(C(=O)N4CCc5c4c(O)c(OC)c4[nH]c(C(=O)N6CC7CC78C6=CC(=O)c6[nH]cc(C)c68)cc54)[nH]c13)CCN2C(N)=O` (centres unmarked) [CC-1065]: the delayed death entry in data set [1] is “causes delayed death in experimental animals”.

B1: anti-ED-B: human monoclonal antibody 1C5 binding fibronectin ED-B, VH SEQ ID NO: 7, VL SEQ ID NO: 8; naked antibody (antibody, listed as Homo sapiens, V domains shown)
VH: EVQLVESGGGLVQPGGSLRLSCAASGFTFSSYSMNWVRQAPGKGLEWVSYISSSSRAIYYADSVKGRFTISRDNAKNSLYLQMNSLRDEDTAVYYCARARYFDWLWYYWGQGTLVTVSS
VL: EIVLTQSPGTLSLSPGERATLSCRASQSVSSSYLAWYQQEPGQAPRLLIYGASSRATGIPDRFSGSGSGTDFTLTISRLEPEDFAVYYCQQRSNWPPTFGQGTKVEIK
For B1, the “effect on tumor growth (median tumor volume)” value in data set [2] is on record as “no inhibitory effect on tumor growth”.
